{
  "source": "patent US20100210722A1",
  "about": "“COMPOSITION FOR PREVENTING OR TREATING LIPID METABOLIC DISORDERS COMPRISING FUCOXANTHIN OR MARINE PLANT EXTRACT CONTAINING SAME” (AMICOGEN, INC., priority 2007, published 2010)",
  "assay_type_in_all_cases": "in vivo, C57BL/6N/CriBgi mice",
  "key": {"[1]": {"assay": "Body weight of mice fed high fat diet with fucoxanthin extract or highly pure fucoxanthin", "details": "high fat diet; for Body weight, Week 0: Week 0 (baseline); for Body weight, Week 0 / Body weight, Week 1 / Body weight, Week 2: in g (unit assumed)", "method": "Seventy (70) 4-week-old male C57BL/6N/CriBgi mice weighing 14 g were purchased from Orient, and reared in separate cages maintained at 24° C. and relative humidity of 55%, providing light from 08:00 until 20:00. The mice were accustomed while providing a pellet type diet for a week. The mice, which weighed 18.5-18.7 g, were grouped into seven groups by the randomized block design. Each group was given a different diet, as follows.\n(§1) Test diets were as follows: “normal diet group”=AIN-76 semisynthetic diet of Teklad (Madison, Wl, USA); “high fat diet group”=normal diet+10% of corn oil and 10% of lard; “test group I”=high fat diet+fucoxanthin extract of Example 1 (fucoxanthin content=0.05%); “test group II”=high fat diet+fucoxanthin extract of Example 1 (fucoxanthin content=0.2%); “test group III”=high fat diet+fucoxanthin extract of Example 2 (fucoxanthin content=0.05%); “test group IV”=high fat diet+fucoxanthin extract of Example 2 (fucoxanthin content=0.2%). The 6 diets (normal diet, high fat diet, and test I, II, III and IV) were given to the animals for 6 weeks. Diet intake was recorded every day, and body weight was measured once a week.\nDuring the 6-week test period, body weight was measured every week. Significance of differences of means of the groups was evaluated by one-way analysis of variance (ANOVA) technique. Duncan's multiple range test was employed for post-evaluation of the groups, with P<0.05."}, "[2]": {"tested_on": "malic enzyme (ME)", "assay": "ME activity in liver tissue", "details": "high fat diet, 6 weeks", "source_text": "as §1\n(§2) The supernatant was centrifuged again at 12,000×g for 15 minutes. Then, the supernatant was subjected to high-speed centrifuging (Beckman, Optima TLX-120, USA) at 100,000×g for 1 hour. Then, change of the activity of enzymes involved in the synthesis of fatty acid—fatty acid synthase (FAS), glucose-6-phosphate dehydrogenase (G6PD) and malic enzyme (ME)—was measured.\n(§3) The ME enzyme is also an enzyme that supplied reducing energy required for the synthesis of fatty acid. […] ME activity was determined as follows. […] After 2 minutes of reaction at 27° C., absorbance was measured at 340 nm. ME activity was calculated as nmol of NADPH produced per 1 mg of protein in cell per minute."}, "[3]": {"tested_on": "carnitine palmitoyltransferase (CPT)", "assay": "CPT activity (mitochondrial fraction)", "details": "high fat diet, 6 weeks", "source_text": "as §1\nCPT is an enzyme involved in the oxidation of fatty acid and may be used as an index for the degree of oxidation of fatty acid. CPT activity was calculated from the measurement of CoASH produced from palmitoyl-CoA using 5,5-dithiobis-(2-nitrobenzoic acid) (DTNB). Specifically, 50 μL of mitochondrial fraction was added to a reaction solution containing 116 mM Tris-HCl (pH 8.0), 1.1 mM EDTA, 2.50 mM 1-carnitine, 0.5 mM DTNB, […] palmitoyl-CoA and 0.2% Triton X-100 to initiate reaction. Then, change of absorbance was measured at 25° C. and 412 nm for 2 minutes."}, "[4]": {"tested_on": "CPT mRNA", "assay": "Expression of mRNA for CPT in adipose tissue (real-time PCR)", "details": "normal diet = 1.00, GAPDH internal marker", "source_text": "as §1\n5 mL of Trizol was added to 0.5 g of white adipose tissue. After pulverizing in liquid nitrogen using a mortar, the tissue was added to 1 mL of chloroform. […] The isolated RNA was diluted and absorbance was measured at 260 nm using a UV spectrometer. […]\nThus prepared cDNA was […] 10-fold, and primers for analyzing the expression of the respective genes (CPT, β-oxidation, FAS, ME and G6PD) were obtained from Genotech (Daejeon, Korea). […] Fluorescence signals were monitored for each cycle and threshold cycle (Cr) was analyzed for quantitative analysis of mRNA for the test groups (Applied Biosystems, SDS7000) (Livak, 2001). […]"}, "[5]": {"tested_on": "ME mRNA", "assay": "Expression of mRNA for ME in liver tissue (real-time PCR)"}, "[6]": {"tested_on": "malic enzyme (ME)", "assay": "ME activity in adipose tissue", "details": "high fat diet, 6 weeks", "source_text": "as §1, §2, §3"}, "[7]": {"details": "fucoxanthin content 0.05% (Test I/III)"}, "[8]": {"details": "fucoxanthin content 0.2% (Test II/IV)"}},
  "note": "Marks after values point to notes of the source that are not given here.",
  "data": [
    {"compound": "CC(=O)O[C@H]1CC(C)(C)C(=C=C/C(C)=C/C=C/C(C)=C/C=C/C=C(C)/C=C/C=C(\\C)C(=O)C[C@@]23O[C@]2(C)C[C@@H](O)CC3(C)C)[C@](C)(O)C1", "note": "[highly pure fucoxanthin, Fucoxanthin]", "values": [
      {"measurement": "Body weight, Week 0", "setting": "[1]; [7]", "value": "18.56 ± 0.3"},
      {"measurement": "Body weight, Week 1", "setting": "[1]; [7]", "value": "20.19 ± 0.2"},
      {"measurement": "Body weight, Week 2", "setting": "[1]; [7]", "value": "21.79 ± 0.3"},
      {"measurement": "Body weight, Week 3", "setting": "[1]; [7]", "value": "22.70 ± 0.2^b"},
      {"measurement": "Body weight, Week 4", "setting": "[1]; [7]", "value": "24.39 ± 0.3^b"},
      {"measurement": "Body weight, Week 5", "setting": "[1]; [7]", "value": "26.46 ± 0.3^b"},
      {"measurement": "Body weight, Week 6", "setting": "[1]; [7]", "value": "27.80 ± 0.3^b"},
      {"measurement": "Body weight, Week 0", "setting": "[1]; [8]", "value": "18.58 ± 0.3"},
      {"measurement": "Body weight, Week 1", "setting": "[1]; [8]", "value": "20.19 ± 0.3"},
      {"measurement": "Body weight, Week 2", "setting": "[1]; [8]", "value": "22.30 ± 0.3"},
      {"measurement": "Body weight, Week 3", "setting": "[1]; [8]", "value": "22.96 ± 0.4^ab"},
      {"measurement": "Body weight, Week 4", "setting": "[1]; [8]", "value": "25.17 ± 0.5^ab"},
      {"measurement": "Body weight, Week 5", "setting": "[1]; [8]", "value": "26.39 ± 0.6^b"},
      {"measurement": "Body weight, Week 6", "setting": "[1]; [8]", "value": "27.37 ± 0.7^bc"},
      {"measurement": "ME activity", "setting": "[2]; [7]", "value": "77.06 ± 7.08^a mmol/min/mg protein"},
      {"measurement": "ME activity", "setting": "[2]; [8]", "value": "73.91 ± 6.37^a mmol/min/mg protein"},
      {"measurement": "CPT activity", "setting": "[3]; [7]", "value": "13.36 ± 1.66^ab mmol/min/mg protein"},
      {"measurement": "CPT activity", "setting": "[3]; [8]", "value": "40.30 ± 12.10^c mmol/min/mg protein"},
      {"measurement": "Expression of mRNA, CPT", "setting": "[4]; [7]", "value": "1.65 ± 0.15^c"},
      {"measurement": "Expression of mRNA, CPT", "setting": "[4]; [8]", "value": "1.51 ± 0.06^bc"},
      {"measurement": "Expression of mRNA, ME", "setting": "[5]; normal diet = 1.00, fucoxanthin content 0.05% (Test I/III)", "value": "0.84 ± 0.08^bc"},
      {"measurement": "Expression of mRNA, ME", "setting": "[5]; normal diet = 1.00, fucoxanthin content 0.2% (Test II/IV)", "value": "0.53 ± 0.03^a"},
      {"measurement": "ME activity", "setting": "[6]; [7]", "value": "0.92 ± 0.14^a mmol/min/mg protein"},
      {"measurement": "ME activity", "setting": "[6]; [8]", "value": "0.94 ± 0.11^a mmol/min/mg protein"}
    ]}
  ]
}
